# According to PubChem BioAssay (NCI):
#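 GI50 = concentration required for 50% inhibition of growth. TGI is the concentration that stops growth completely.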
# Legend:
# Test in all cases: NCI-60 cell line screen, 384-well format
# T-47D breast = tested on: T-47D breast
# OVCAR-5 ovarian = tested on: OVCAR-5 ovarian
# SR leukemia = tested on: SR leukemia
# SK-MEL-2 melanoma = tested on: SK-MEL-2 melanoma
# HCT-116 colon = tested on: HCT-116 colon
# RPMI-8226 leukemia = tested on: RPMI-8226 leukemia
# ACHN renal = tested on: ACHN renal
# SF-539 CNS = tested on: SF-539 CNS
# BT-549 breast = tested on: BT-549 breast
# OVCAR-8 ovarian = tested on: OVCAR-8 ovarian
# OVCAR-3 ovarian = tested on: OVCAR-3 ovarian
# CAKI-1 renal = tested on: CAKI-1 renal
# TK-10 renal = tested on: TK-10 renal
# SNB-75 CNS = tested on: SNB-75 CNS
# COLO 205 colon = tested on: COLO 205 colon
# 786-0 renal = tested on: 786-0 renal
# EKVX NSCLC = tested on: EKVX NSCLC
# NCI-H23 lung = tested on: NCI-H23 lung
# HOP-62 NSCLC = tested on: HOP-62 NSCLC
# SF-268 CNS = tested on: SF-268 CNS
# SK-MEL-28 melanoma = tested on: SK-MEL-28 melanoma
# K-562 leukemia = tested on: K-562 leukemia
# PC-3 prostate = tested on: PC-3 prostate
# IGROV1 ovarian = tested on: IGROV1 ovarian
# MALME-3M melanoma = tested on: MALME-3M melanoma
# NCI-H322M lung = tested on: NCI-H322M lung
# SF-295 CNS = tested on: SF-295 CNS
# OVCAR-4 ovarian = tested on: OVCAR-4 ovarian
# NCI/ADR-RES ovarian = tested on: NCI/ADR-RES ovarian
# SK-OV-3 ovarian = tested on: SK-OV-3 ovarian
# KM12 colon = tested on: KM12 colon
# HCC-2998 colon = tested on: HCC-2998 colon
# SN12C renal = tested on: SN12C renal
# NCI-H522 lung = tested on: NCI-H522 lung
# A498 renal = tested on: A498 renal
# CCRF-CEM leukemia = tested on: CCRF-CEM leukemia
# MDA-MB-231 breast = tested on: MDA-MB-231 breast
# LOX IMVI melanoma = tested on: LOX IMVI melanoma
# SNB-19 CNS = tested on: SNB-19 CNS
# NCI-H460 NSCLC = tested on: NCI-H460 NSCLC
# M14 melanoma = tested on: M14 melanoma
# SW-620 colon = tested on: SW-620 colon
# A549 NSCLC = tested on: A549 NSCLC
# HS 578T breast = tested on: HS 578T breast
# HOP-92 NSCLC = tested on: HOP-92 NSCLC
# U251 glioblastoma = tested on: U251 glioblastoma
# HT29 colon = tested on: HT29 colon
# DU-145 prostate = tested on: DU-145 prostate
# UACC-257 melanoma = tested on: UACC-257 melanoma
# MDA-MB-435 melanoma = tested on: MDA-MB-435 melanoma
# MCF7 breast = tested on: MCF7 breast
# HL-60(TB) leukemia = tested on: HL-60(TB) leukemia
# UACC-62 melanoma = tested on: UACC-62 melanoma
# HCT-15 colon = tested on: HCT-15 colon
# SK-MEL-5 melanoma = tested on: SK-MEL-5 melanoma
# MDA-MB-468 breast = tested on: MDA-MB-468 breast
# MOLT-4 leukemia = tested on: MOLT-4 leukemia
# RXF 393 renal = tested on: RXF 393 renal
structure (smiles),measurement,setting,value
COc1cc(F)ccc1-c1ncnc(Nc2cccc(CS(C)(=N)=O)c2)n1 (centres undefined),GI50,T-47D breast,3.01 µM
same,TGI,T-47D breast,> 100 µM
same,GI50,OVCAR-5 ovarian,0.316 µM
same,TGI,OVCAR-5 ovarian,> 100 µM
same,GI50,SR leukemia,0.0395 µM
same,TGI,SR leukemia,0.112 µM
same,GI50,SK-MEL-2 melanoma,1.04 µM
same,TGI,SK-MEL-2 melanoma,2.46 µM
same,GI50,HCT-116 colon,0.3 µM
same,TGI,HCT-116 colon,> 100 µM
same,GI50,RPMI-8226 leukemia,1.7 µM
same,TGI,RPMI-8226 leukemia,3.08 µM
same,GI50,ACHN renal,0.51 µM
same,TGI,ACHN renal,> 100 µM
same,GI50,SF-539 CNS,0.986 µM
same,TGI,SF-539 CNS,2.82 µM
same,GI50,BT-549 breast,0.773 µM
same,TGI,BT-549 breast,2.6 µM
same,GI50,OVCAR-8 ovarian,0.52 µM
same,TGI,OVCAR-8 ovarian,2.61 µM
same,GI50,OVCAR-3 ovarian,0.384 µM
same,TGI,OVCAR-3 ovarian,1.81 µM
same,GI50,CAKI-1 renal,0.404 µM
same,TGI,CAKI-1 renal,> 100 µM
same,GI50,TK-10 renal,0.819 µM
same,TGI,TK-10 renal,> 100 µM
same,GI50,SNB-75 CNS,0.592 µM
same,TGI,SNB-75 CNS,2.18 µM
same,GI50,COLO 205 colon,0.339 µM
same,TGI,COLO 205 colon,1.92 µM
same,GI50,786-0 renal,0.683 µM
same,TGI,786-0 renal,3.88 µM
same,GI50,EKVX NSCLC,1.28 µM
same,TGI,EKVX NSCLC,4.28 µM
same,GI50,NCI-H23 lung,0.568 µM
same,TGI,NCI-H23 lung,2.24 µM
same,GI50,HOP-62 NSCLC,0.33 µM
same,TGI,HOP-62 NSCLC,1.5 µM
same,GI50,SF-268 CNS,0.331 µM
same,TGI,SF-268 CNS,1.41 µM
same,GI50,SK-MEL-28 melanoma,0.572 µM
same,TGI,SK-MEL-28 melanoma,2.36 µM
same,GI50,K-562 leukemia,2 µM
same,TGI,K-562 leukemia,15 µM
same,GI50,PC-3 prostate,0.795 µM
same,TGI,PC-3 prostate,4.96 µM
same,GI50,IGROV1 ovarian,0.919 µM
same,TGI,IGROV1 ovarian,> 100 µM
same,GI50,MALME-3M melanoma,0.843 µM
same,TGI,MALME-3M melanoma,2.3 µM
same,GI50,NCI-H322M lung,0.384 µM
same,TGI,NCI-H322M lung,2.61 µM
same,GI50,SF-295 CNS,1.21 µM
same,TGI,SF-295 CNS,5.07 µM
same,GI50,OVCAR-4 ovarian,1.83 µM
same,TGI,OVCAR-4 ovarian,6.09 µM
same,GI50,NCI/ADR-RES ovarian,2.58 µM
same,TGI,NCI/ADR-RES ovarian,21.8 µM
same,GI50,SK-OV-3 ovarian,2.55 µM
same,TGI,SK-OV-3 ovarian,6.68 µM
same,GI50,KM12 colon,0.322 µM
same,TGI,KM12 colon,2.12 µM
same,GI50,HCC-2998 colon,1 µM
same,TGI,HCC-2998 colon,3.77 µM
same,GI50,SN12C renal,0.668 µM
same,TGI,SN12C renal,3.52 µM
same,GI50,NCI-H522 lung,1.77 µM
same,TGI,NCI-H522 lung,4.12 µM
same,GI50,A498 renal,0.448 µM
same,GI50,CCRF-CEM leukemia,0.299 µM
same,TGI,CCRF-CEM leukemia,1.05 µM
same,GI50,MDA-MB-231 breast,0.559 µM
same,TGI,MDA-MB-231 breast,2.68 µM
same,GI50,LOX IMVI melanoma,0.312 µM
same,TGI,LOX IMVI melanoma,1.66 µM
same,GI50,SNB-19 CNS,0.988 µM
same,TGI,SNB-19 CNS,> 100 µM
same,GI50,NCI-H460 NSCLC,0.815 µM
same,TGI,NCI-H460 NSCLC,3.56 µM
same,GI50,M14 melanoma,0.98 µM
same,TGI,M14 melanoma,3.86 µM
same,GI50,SW-620 colon,0.776 µM
same,TGI,SW-620 colon,4.82 µM
same,GI50,A549 NSCLC,1.61 µM
same,TGI,A549 NSCLC,> 100 µM
same,GI50,HS 578T breast,0.465 µM
same,TGI,HS 578T breast,1.69 µM
same,GI50,HOP-92 NSCLC,1.7 µM
same,TGI,HOP-92 NSCLC,> 23.9 µM
same,GI50,U251 glioblastoma,0.872 µM
same,TGI,U251 glioblastoma,> 19.9 µM
same,GI50,HT29 colon,1.4 µM
same,TGI,HT29 colon,4.15 µM
same,GI50,DU-145 prostate,0.402 µM
same,TGI,DU-145 prostate,3.75 µM
same,GI50,UACC-257 melanoma,1.6 µM
same,TGI,UACC-257 melanoma,3.44 µM
same,GI50,MDA-MB-435 melanoma,1.44 µM
same,TGI,MDA-MB-435 melanoma,> 19.7 µM
same,GI50,MCF7 breast,0.408 µM
same,TGI,MCF7 breast,> 100 µM
same,GI50,HL-60(TB) leukemia,0.182 µM
same,TGI,HL-60(TB) leukemia,0.391 µM
same,GI50,UACC-62 melanoma,0.24 µM
same,TGI,UACC-62 melanoma,1.08 µM
same,GI50,HCT-15 colon,0.462 µM
same,GI50,SK-MEL-5 melanoma,0.455 µM
same,TGI,SK-MEL-5 melanoma,1.84 µM
same,GI50,MDA-MB-468 breast,1.12 µM
same,TGI,MDA-MB-468 breast,2.47 µM
same,GI50,MOLT-4 leukemia,0.506 µM
same,TGI,MOLT-4 leukemia,1.62 µM
same,GI50,RXF 393 renal,0.228 µM
same,TGI,RXF 393 renal,0.586 µM
